Data taken from patent publication US20190151304A1, “METHODS AND PHARMACEUTICAL COMPOSITIONS FOR THE TREATMENT OF AUTOIMMUNE INFLAMMATORY” (INSERM (INSTITUT NATIONAL DE LA SANTÉ ET DE LA RECHERCJAE …, priority 2016, published 2019).
No end group written: not given here.

Tests used:
[1] = system: EAE mice; experiment: Chronic experimental autoimmune encephalomyelitis (EAE) induced with MOG35-55; assay type: in vivo, C57BL/6 mice; conditions: for Histopathological EAE score (spinal cord): 30 days post-immunization; for Regulatory T cell (Treg) proportion in draining lymph nodes: day 30 post-immunization, flow cytometry, versus PBS controls; for Clinical features of EAE (clinical score 0-5): orexin A 100 or 300 μg per mouse for 5 days, IP or retro-orbital, before onset or at moderate EAE score
Method: EAE was induced with 100 μg of MOG35-55 (Myelin Oligodendrocyte Glycoprotein 35-55) as previously described (Proc Natl Acad Sci USA. 106(6):2012-7, 2009) to 9 week old female C57BL/6 wild-type (WT) mice (n=10/group). Panels show clinical signs of EAE scored daily in a blinded fashion for over 30 days on a scale of 0-5 as follows: 0, no detectable clinical signs, 1, waddling gait with limp tail, 2, ataxia with full paralysis of one limb, 3, full paralysis of two limbs, 4, full paralysis of two limbs with important weight loss (>20% of initial weight) and 5, moribund or dead. Then, mice were given:
Panel A, intraperitoneally (IP) either PBS (group PBS IP), 100 μg of orexin A per mouse for 5 days on day 3 (=before the onset, group BOxA100 IP) or at a moderate EAE score (=1,5-2 for group OxA100 IP).
Panel B, intraperitoneally either PBS (group PBS), 100 μg (group OxA100 IP) or 300 μg (group OxA300 IP) of orexin A per mouse for 5 days at a moderate EAE score (=1,5-2).
Panel C, either PBS (group PBS), 300 μg of orexin A per mouse intraperitoneally (group OxA300 IP) or retro-orbitally (RO) (group OxA300 RO) for 5 days at a moderate EAE score (=1,5-2).
The EAE score is shown as mean+/−SEM. *P<0.05 (nonparametric t-test, compared to PBS group).
FIG. 5. […] 30 days post-immunization, mice (from the PBS, OxA300 RO, and OxA300 IP groups of FIG. 2, panel C) were sacrificed and spinal cords were harvested, fixed overnight in 4% paraformaldehyde and stored in 70% ethanol. Spinal cords were then embedded in paraffin and cut in […] section. After haematoxylin/eosin (to distinguish cell infiltration) and luxol fast blue (to label myelin) staining, photography was performed at ×1,25 and ×10 magnifications for the spinal cord sections of PBS, OxA300 RO and OxA300 IP mice. […] Histopathology grading was as follows: 0—normal appearance, 1—some infiltrated cells and low demyelination, 2—2 or 3 infiltrated areas and low demyelination, 3—numerous infiltrated areas and strong demyelination, 4—important cell infiltration throughout the tissue with strong demyelination. *P<0.05 (nonparametric t-test, compared to PBS group).
FIG. 6. […] It was determined 30 days after EAE induction of PBS, OxA300 RO, and OxA300 IP mice (from FIG. 2, panel C) by real time RT-qPCR as previously described (Proc Natl Acad Sci USA. 106(6):2012-7, 2009). *P<0.05 (nonparametric t-test, compared to PBS group).
FIG. 7. […] On day 30 post-immunization, draining lymph nodes were harvested from the naïve, PBS, OxA300 RO, and OxA300 IP groups (FIG. 2, panel C). Assessment by flow cytometry was performed by using the mouse regulatory T cell staining kit: lymph node Tregs were defined as […] and proliferative Tregs as CD4^+CD25^+Foxp3^+Ki67^+ cells.
Histograms represent the mean of the percentage (left) and the total number (right) of Tregs and proliferative Tregs (Ki67^+Tregs) for each group. Bars represent the mean+/−SEM of 5 individual mice. *P<0.05 (non parametric t-test, compared to PBS group).
Therefore, orexin A presents potent intrinsic anti-inflammatory properties, capable of modulating the Th/Treg homeostasis during an auto-immune response as aggressive as in a chronic EAE model.

[2] = system: cerulein-induced chronic pancreatitis mice; experiment: Chronic pancreatitis mice model induced by cerulein; assay type: in vivo
Description: FIG. 9. Pancreatic lymphocyte infiltration determined by immunostaining of CD45+ cells. Values were expressed as percentage of stained surface. **, p<0.01
FIG. 10: Amylase activity in blood samples of control mice, cerulein-induced mice and cerulein-induced mice treated with OxA. *, p<0.05; ***, p<0.001 and NS, non significant.
We have investigated the effect of orexin A (OxA) on chronic pancreatitis mice model induced by supraphysiologic doses of cerulein (3 intraperitoneal injections/week at 100 μg/kg). […] In mice treated by OxA (2 intraperitoneal injections/week at 1.40 μmol/Kg) the lesions induced by cerulein improved. OxA-treated mice had lower number of acino-ductal metaplasia.

[3] = 30 days after EAE induction, RT-qPCR, OxA 300 μg RO or IP

OxA: neuropeptide, endogenous ligand of OX1R and OX2R, with two disulphide bridges (QPLPDCCRQKTCSCRLYELLHGAGNHAAGILTL; disulfide (positions not given here); ends not checked; also: two disulphide bridges, pairing not given here; UniProt O43612 34-66, looked up)
Th1-specific (IFNγ) cytokine gene expression in the brain [1, 3]: efficiently suppresses
Th17-specific (IL-17) cytokine gene expression in the brain [1, 3]: efficiently suppresses
Histopathological EAE score (spinal cord) ([1]; OxA 300 μg RO or IP, listed as Orexin A): significantly decreases
Histopathological EAE score (spinal cord) ([1]; OxA 300 μg RO or IP, listed as orexin A): drastic reduction
Regulatory T cell (Treg) proportion in draining lymph nodes ([1]; listed as Orexin A): increased
Regulatory T cell (Treg) proportion in draining lymph nodes ([1]; listed as orexin A): increase
Clinical features of EAE (clinical score 0-5) ([1]; listed as Orexin A): dramatically alleviate
Clinical features of EAE (clinical score 0-5) ([1]; listed as orexin A): significantly ameliorated
Th1/Th17 pro-inflammatory responses in the CNS tissues ([1]; orexin A treated-mice versus PBS controls): drastic reduction
Pancreatic lymphocyte infiltration (anti-CD45 immunohistochemistry) ([2]; OxA 1.40 μmol/Kg, quantitative imaging analysis, 18% in OxA-untreated mice): 6 % of the pancreatic surface
Pancreatic fibrosis on Picrosirius staining ([2]; OxA 1.40 μmol/Kg, quantitative imaging analysis, 40% in OxA-untreated mice): 12 % of the pancreatic surface
Number of acino-ductal metaplasia ([2]; OxA 2 intraperitoneal injections/week at 1.40 μmol/Kg): lower number
Lesions induced by cerulein (histological analysis of the pancreas) ([2]; OxA 2 intraperitoneal injections/week at 1.40 μmol/Kg, 3 weeks of cerulein): improved
Amylase activity in blood samples ([2]; cerulein-induced mice treated with OxA): significantly reduced
